For 19 compounds, MIC results are on record in ChEMBL document CHEMBL1221262, “Synthesis and antituberculosis activity of new fatty acid amides” (2010).

Values after ≈ are worked out from the molar mass of the structure shown.

The test has as its system Mycobacterium tuberculosis. Kind of test: Antitubercular activity against Mycobacterium tuberculosis H37Rv after 7 days by resazurin microtiter assay. To be noted: 168 h. In kind it is functional. Background: The colour change of resazurin is a common sign of viable cells or microbes.
A word on the MIC: it is the least concentration at which growth counts as inhibited. Low values mean a more susceptible organism, high ones a less susceptible organism. With `CCCCCCCCCCCCCCCC(=O)NCCO` [PALMIDROL], the MIC was above 100 µg/mL. As for `CCCCCCCCCCCCCCCC(=O)N1CCCC1`, the figure is 25 µg/mL (≈ 80.8 µM); as for `CCCCCCCC/C=C\CCCCCCCC(=O)NCCO` [OLEOYLETHANOLAMIDE], 25 µg/mL (≈ 76.8 µM). As for `CCCCCCCCCCCCCCCC(=O)N[C@@H](C)c1ccccc1`, the MIC was above 100 µg/mL. `CCCCCCCCCCCCCCCC(=O)N[C@H](C)c1ccccc1` returned an MIC above 100 µg/mL.

In the case of `CCCCC/C=C\C/C=C\CCCCCCCC(=O)N[C@@H](C)c1ccccc1`, the lowest concentration to inhibit growth (MIC) was 50 µg/mL (≈ 130 µM). As for `CCCCCCCC/C=C\CCCCCCCC(=O)N1CCOCC1`, the figure is 25 µg/mL (≈ 71.1 µM). The same measure for `CCCCC/C=C\C/C=C\CCCCCCCC(=O)N1CCCC1`: 12.5 µg/mL (≈ 37.5 µM); for `CCCCCCCCCCCCCCCC(=O)N1CCCCC1`: 25 µg/mL (≈ 77.3 µM). As for `CCCCCCCCCCCCCCCCCC(=O)N[C@@H](C)c1ccccc1`, the figure is above 100 µg/mL. `CCCCCCCC/C=C\CCCCCCCC(=O)N1CCCC1` gave an MIC of 25 µg/mL (≈ 74.5 µM).

The compound `CCCCCC[C@@H](O)C/C=C\CCCCCCCC(=O)NCc1ccccc1` registered an MIC of 25 µg/mL (≈ 64.5 µM). With `CCCCCC[C@@H](O)C/C=C\CCCCCCCC(=O)N1CCCC1`, the MIC came to 12.5 µg/mL (≈ 35.6 µM). In the case of `CCCCCC[C@@H](O)C/C=C\CCCCCCCC(=O)N[C@H](C)c1ccccc1`, the MIC was found to be 100 µg/mL (≈ 249 µM). In turn, `CCCCCCCC/C=C\CCCCCCCC(=O)N1CCCCC1` displayed an MIC of 50 µg/mL (≈ 143 µM). `CCCCC/C=C\C/C=C\CCCCCCCC(=O)N[C@H](C)c1ccccc1` came in with an MIC of 100 µg/mL (≈ 261 µM). This MIC lies about 2-fold higher than the previous one.

In turn, `CCCCCC[C@@H](O)C/C=C\CCCCCCCC(=O)N1CCOCC1` displayed a minimum inhibitory concentration (MIC) of 50 µg/mL (≈ 136 µM).

Turning to `CCCCCCCCCCCCCCCCCC(=O)N[C@H](C)c1ccccc1`, the MIC is above 100 µg/mL.

As to `CCCCCC[C@@H](O)C/C=C\CCCCCCCC(=O)N[C@@H](C)c1ccccc1`, the MIC was 100 µg/mL (≈ 249 µM).
